Assay results reported in US20140196172A1, “Organelle Targeting Nanocarriers” (Her Majesty the Queen in Right of Canada, as Repre sented …, priority 2011, published 2014).

What was measured:
[1] = tested on: proplastids of triticale microspores; experiment: qRT-PCR of gfp mRNA, microspores transfected with pWCaadA16GFP; assay type: cell-based; details: gfp reporter construct
From the text: FIG. 18 is a plot showing the level of expression (fold increase, average of 4 replicates) of GFP in triticale microspores transfected with the pWCaadA16GFP plasmid in the presence of cTP1 (SEQ ID NO: 6), cTP2 (SEQ ID NO: 7), cTP3 (SEQ ID NO: 8), cTP4 (SEQ ID NO: 9) or cTP5 (SEQ ID NO: 10) compared to the level of expression (fold increase) of the internal control elongation factor 1a (EF1a), as measured by quantitative real time PCR of mRNA levels;
(§1) Wheat chloroplast aadA16GFP reporter plasmid (pWCaadA16GFP, FIG. 12) is a 4212 base pair wheat specific plastid transformation vector, which targets insertions into the tml-tmA inverted repeat regions of the Triticum aestivum plastid genome at nucleotides 92850-93727 and 93794-94671 (GenBank accession No. AB042240.3). A multiple cloning site is introduced following the tml target insertion sequence. The selection marker gene is an organelle codon specific aad-gfp fusion gene, which facilitates a dual selection method of spectinomycin resistance through an aadA derivative and visual detection by GFP fluorescence (GenBank accession No. ABX39486; Khan and Maliga, Nat. Biotechnol. (1999 September) 17(9): 910-5). The selection marker gene is driven by the Triticum aestivum plastid genome promoter (psbA) at nucleotides 1282-1153 (GenBank accession No. AB042240.3). The aad-gfp fusion gene is terminated with the rice psbA terminator sequence derived from chloroplast transformation vector pVSR326 nucleotides 4014-4387 (GenBank accession No. AF527485.1).
The dsDNA construct (pWMaadA16GFP for mitochondrial expression or pWCaadA16GFP for expression in chloroplasts) is combined with the mTP (for mitochondrial expression) or cTP (for expression in chloroplasts) in the amounts used in the protoplast transformation experiments described above in a final volume of 100 μl of NBP-99 solution. The mixture is incubated for 10 minutes at room temperature, then incubated with isolated triticale microspores (500 μl, 10^6 microspores/ml, prepared as described in Example 2) for 1 h in the dark at room temperature. NBP-99 solution (500 μl) is added and the mixture is incubated in the dark for 24 h. The cells are imaged using confocal microscopy, as described in Example 2, using MitoTracker® Orange staining to visualize mitochondria.
Microspores are disrupted using a cleaned ceramic bead and aggressive shaking as the tissue is thawing. RLT buffer/B-Me (450 μl) is added and the sample is vortexed. The sample is heated at 55° C. for 1 minute and vortexed again. RNA is extracted using an RNeasy™ Plant Mini Kit (Qiagen), incorporating on-column DNase I digestion into the protocol. The final elution volume is 40 μl. RNA is assessed using both agarose gel […] (to ensure RNA is intact) and spectrophotometry (for quantification).
(§2) cDNA is generated using a First Strand Synthesis kit (Invitrogen). RNA (1 μg) is added to each sample and the manufacturer's protocol for synthesis followed, with the exception that the volume of the reaction mixture is increased from 20 μl to 30 μl. A negRT sample containing all reagents but no RNA is included in the cDNA synthesis as a negative control.
Standard curves are generated for both elongation factor 1a (EF1a) (internal control) and green fluorescent protein (GFP) (test) genes. […]
(§3) Real time PCR reactions are performed using QuantiTect™ SYBR™ Green PCR Master Mix (Qiagen) in a 20 μl reaction volume. […]

[2] = tested on: chloroplasts of triticale protoplasts; experiment: qRT-PCR of gfp mRNA, protoplasts transfected with pWCaadA16GFP; assay type: cell-based; details: gfp reporter construct
From the text: FIG. 20 is a plot showing the level of expression (fold increase, average of 4 replicates) of GFP in triticale protoplasts transfected with the pWCaadA16GFP plasmid in the presence of cTP1 (SEQ ID NO: 6), cTP2 (SEQ ID NO: 7), cTP3 (SEQ ID NO: 8), cTP4 (SEQ ID NO: 9) or cTP5 (SEQ ID NO: 10) compared to the level of expression (fold increase) of the internal control elongation factor 1a (EF1a), as measured by quantitative real time PCR of mRNA levels.
as §1
The dsDNA construct (pWMaadA16GFP for mitochondrial expression or pWCaadA16GFP for expression in chloroplasts) is combined with the mTP (for mitochondrial expression) or cTP (for expression in chloroplasts) in a final volume of 100 μl of CPW solution. For experiments using mTP1 (SEQ ID NO: 1), mTP2 (SEQ ID NO: 2), mTP3 (SEQ ID NO: 3), or mTP5 (SEQ ID NO: 5), peptides (scaled up from 100 ng, at four times the concentration needed to cause a DNA shift in the gel mobility shift assay (Table 7)) are combined with the pWMaadA16GFP construct (5 μg). For experiments using the remaining oTPs, peptides (30 μg) are combined with the appropriate dsDNA construct (1.5 μg). The mixture is incubated for 10 minutes at room temperature, then incubated with isolated triticale mesophyll protoplasts (500 μl, 10^6 protoplasts/ml, prepared as described in Example 2) for 1 h in the dark at room temperature. CPW solution (500 μl) is added and the mixture is incubated in the dark for 24 h. The cells are imaged using confocal microscopy, as described in Example 2, using MitoTracker® Orange staining to visualize mitochondria and chlorophyll autofluorescence to visualize chloroplasts.
as §2
Standard curves are generated for both elongation factor 1a (EF1a) (internal control) and green fluorescent protein (GFP) (test) genes. The EF1a curve is generated by pooling 6 μl of each cDNA sample (excluding the negRT control), then carrying out a serial dilution of 0.5 for 5 more dilutions. […]
as §3

## MKNPPSSFASGFGIR (listed as Oryza sativa) [cTP3]
[1]
  GFP expression by proplastids confirmed by qRT-PCR: GFP is expressed
[2]
  GFP expression by chloroplasts confirmed by qRT-PCR: GFP is expressed
